Assay [1] has as its system carrageenan-induced paw inflammation. Description: Carrageenan-induced paw inflammation/edema in BABL-c mice. In kind it is in vivo. As to conditions: for inflammatory edema (paw volume quantitation): 50 mg/kg intramuscular 10 min before carrageenan, vs saline control; for inflammatory edema (paw volume quantitation) / time course of paw volume: 50 mg/kg; for paw thickness: 50 mg/kg intramuscular, vs control group; for time course of paw volume: 0-6 h after carrageenan. The procedure: (§1) Animals. The adult CD-1 mice (18-20 g) and BABL-c (18-20 g) were purchase from Envigo Plus vendor (USA) and used in this study. The mice were hosted under standard condition (23±2° C.; 12 h/12 h light/dark cycle; 50% humidity). The protocol was approved by Institutional Animal Care and Use Committee (IACUC). And all procedures were conducted according to IACUC. After all the experiments, the animals were euthanized with CO2 under the procedure of IACUC. Injections of compounds. The synthesized compounds to be tested were injected 10 mins before carrageenan injection. All the compounds were freshly prepared. All the compounds were dissolved in PBS and totally dissolved after ultrasonic. The compounds were injected with 26-G sterile needle via intramuscular injection. After immobilizing the mice, the hind limb was immobilized with the little finger and the then, the injection site was disinfected with 70% alcohol, and the needle was inserted into the root of the hindlimb at an angle of 45 degrees. The needle plug was withdrawn to make sure there was no injection into the blood vessel. If there was no blood return, the compounds were injected slowly. The mice were place back to their cages for 10 mins before the next step. Procedures for establishing of paw inflammation. The procedure of establishing inflammation mice model and the procedure of measurement of paw edema were describe as follow: 1% lambda-carrageenan was freshly prepared before injection. Carrageenan powder was first dissolved in cold PBS and vortexed for 5 times. Then the mixture was placed in 50° C. water for 5 mins until all the milky white matrix dissolved completely. […]*3⁄8 (0.45 mm*10 mm) sterile needle was used for injection. Carrageenan was subcutaneous injected slowly into the middle of the mice left hind paw. The time of injection Carrageenan was count as the start time point (0 h) and the paw swelling size was recorded as paw thickness and paw edema volume. Establishing of Carrageenan-induced Inflammatory Paw Edema Mice Model. […] The carrageenan-induced paw edema inflammation is a well-defined model of acute inflammation. It is widely and commonly used for evaluating the effectiveness of inhibitors of prostaglandin synthesis. Carrageenan is a complex of polysaccharides that functions in stimulating the expressions of COX-2 and mPGES-1 to release the proinflammatory mediator, PGE2, and its downstream factors, such as bradykinin, histamine, tachykinins, reactive oxygen, and nitrogen species. In this study, to induce acute inflammation, a single dose of 25 μl of 1% solution of λ-carrageenan was injected subcutaneously into the pad area of the hairless skin on the underside of the left hind paw (FIG. 1A). The injection was performed using a 26-gauge needle targeting the center of the plantar region. The administration of leading compounds and the positive control group, Celebrex, and the negative control saline occurred 10 minutes prior to the λ-carrageenan […] injection. To obtain the anti-inflammatory data, the animal condition was monitored hourly and paw-edema volume and thickness were measured hourly from 0 h to 6 h and again at 24 h, the injection of λ-carrageenan was counted as 0 h (FIG. 1B). After 24 h, local blood was collected from the hind paw of the mice for the next step assay to determine the PGE2 and PGI2 levels. Tissue samples, including the stomach and kidney, were collected after euthanization. The BABL-c mice were arranged into three groups: A. Control (Ctl) group: 50 μl saline; B. 2Me group: 50 mg/kg, 50 ul; C. 3-F group: 50 mg/kg, 50 ul. the CD-1 mice were arranged into 6 groups: A. Control (Ctl) group: saline 50 ul; B. 2-Me group: 50 mg/kg, 50 ul; C. 3-F group: 50 mg/kg, 50 ul; D: 2-Me group: 10 mg/kg, 50 ul; E. 3-F group: 10 mg/kg, 50 ul; F. Celebrex group: 50 mg/kg, 50 ul. Establishing measurements of the carrageenan-induced acute inflammation/edema. […]
Background: Carrageenan injected into the paw causes an acute inflammation.

Assay [2] has the same test system. Description: Carrageenan-induced paw inflammation/edema in CD-1 mice. In kind it is in vivo. The note with it: for dose-dependent anti-inflammatory activity, paw thickness: 10 mg/kg vs 50 mg/kg; for dose-dependent anti-inflammatory activity, paw edema volume: 10 mg/kg vs 50 mg/kg, 2, 4 and 6 h; for paw thickness increase / paw volume increase: 50 mg/kg intramuscular, vs control group; for paw volume increase: 50 mg/kg. The procedure: as §1

In assay [3] the target is T1, COX-2-10aa-mPGES-1 (Homo sapiens, UniProt O14684+P35354).
T1 construct: made in house
T1 sequence (P35354+O14684 with tags, fused parts or gaps): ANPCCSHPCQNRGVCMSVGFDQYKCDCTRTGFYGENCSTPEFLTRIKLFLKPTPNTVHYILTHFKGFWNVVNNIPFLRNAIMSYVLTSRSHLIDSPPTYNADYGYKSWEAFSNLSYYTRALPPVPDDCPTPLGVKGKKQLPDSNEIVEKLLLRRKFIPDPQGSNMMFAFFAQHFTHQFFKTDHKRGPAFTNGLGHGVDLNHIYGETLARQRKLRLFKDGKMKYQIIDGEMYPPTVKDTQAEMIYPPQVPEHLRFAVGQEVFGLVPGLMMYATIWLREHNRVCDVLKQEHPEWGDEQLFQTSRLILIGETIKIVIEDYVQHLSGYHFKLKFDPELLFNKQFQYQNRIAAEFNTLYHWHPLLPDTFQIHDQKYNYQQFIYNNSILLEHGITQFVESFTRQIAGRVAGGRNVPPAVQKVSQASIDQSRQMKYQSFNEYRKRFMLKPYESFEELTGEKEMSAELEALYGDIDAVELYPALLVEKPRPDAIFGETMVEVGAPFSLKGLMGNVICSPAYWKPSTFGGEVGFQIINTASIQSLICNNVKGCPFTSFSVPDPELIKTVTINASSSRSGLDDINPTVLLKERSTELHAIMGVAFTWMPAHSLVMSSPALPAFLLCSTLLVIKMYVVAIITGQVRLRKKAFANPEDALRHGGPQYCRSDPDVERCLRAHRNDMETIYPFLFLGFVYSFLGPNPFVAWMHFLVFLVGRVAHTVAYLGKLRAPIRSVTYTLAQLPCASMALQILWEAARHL
Description: Enzymelink COX-2-10aa-mPGES-1 high through-put screening. In kind it is biochemical. The note with it: cross-filtered between mPGES-1, PGIS and COX-2 with AA as substrate. From the text: There is an urgent need for new anti-inflammatory drugs with less the adverse effects in clinical practice. Developing drugs which inhibit mPGES-1 without affecting other COX downstream synthases to only decrease PGE2 level at inflammation site is an ideal therapeutic strategy to treat inflammatory diseases. By successfully establishing a system of single-chain Enzymelinks of the upstream COX-2 and the downstream mPGES-1 thread by a 10 amino acid (AA) bio-linker (COX-2-10aa-mPGES-1 [9,11]), one can mimic endogenous inflammatory PGE2 biosynthesis without affecting COX-2 coupling to other enzyme synthases, for example, PGIS. This kind of Enzymelink has a kinetic advantage for converting the initial substrate, AA, to pro-inflammatory PGE2 via a triple catalytic reaction due to the shorter distance between the catalytic domain of the two enzymes within a single polypeptide chain. By this method, it was possible to reduce the interference with the mPGES-1 inhibitor screen, such as the nonspecific inhibition and cross-inhibition of PGIS, by avoiding the use of the unstable intermediate PGH2 as the initial substrate for PGE2 biosynthesis. At the same time, another Enzymelink, COX-2-10aa-PGIS was established in order to verify that the screen compound will not affect PGI2 synthesis. […]

“Also recorded” adds a separate entry of the source.

Take `CC(C)c1ccc(-c2nc3cc(N)ccc3o2)cc1` [2-Me]: in assay [1], the “inflammatory edema (paw volume quantitation)” value is reported as “significantly decreased the inflammatory edema; also recorded: significant effects on reducing the paw edema”; the paw thickness entry is reported as “significant anti-inflammatory potency”; the “time course of paw volume” value is “increased slightly in the first 4 hours and decreases in the following 2 hours”. Also, in assay [2], the “dose-dependent anti-inflammatory activity, paw thickness” value is recorded as “improve the anti-inflammatory effects”; the “dose-dependent anti-inflammatory activity, paw edema volume” value is “improved its anti-inflammation activity”; the paw thickness increase entry is recorded as “significantly decrease”; the paw volume increase result is recorded as “significantly decrease; also recorded: significant effects on reducing the paw edema”. The “selectivity for mPGES-1” value in assay [3] is “highly selective for mPGES-1”.

As for `Nc1ccc2oc(-c3ccc(C(F)(F)F)cc3)nc2c1` [3-F], in assay [1], the “inflammatory edema (paw volume quantitation)” value was “significantly decreased the inflammatory edema; also recorded: significant effects on reducing the paw edema”, the paw thickness entry is reported as “significant anti-inflammatory potency” and the “time course of paw volume” value is recorded as “increased during the first 2 hours but decreased within the next 4 hours”. Moreover, in assay [2], the “dose-dependent anti-inflammatory activity, paw thickness” value is on record as “improve the anti-inflammatory effects”; the “dose-dependent anti-inflammatory activity, paw edema volume” value is reported as “increasing potent anti-inflammatory effect corresponding with the dosage increase”; the paw thickness increase entry was “significantly decrease”; the paw volume increase entry is given as “significantly decrease; also recorded: significant effects on reducing the paw edema”. Also, the “selectivity for mPGES-1” value in assay [3] is listed as “highly selective for mPGES-1”.
